Results as given in PMC12027946, “Ionic and Non-Ionic Counterparts Based on Bis(Uracilyl)Alkane Moiety with Highest Selectivity Towards Acetylcholinesterase for Protection Against Organophosphate Poisoning and Treating Alzheimer’s Disease” (International Journal of Molecular Sciences, 2025).

Legend:
mice [1] = assay: Open-field test; format: in vivo; conditions: 2b 0.01 mg/kg, 3c 5 mg/kg, i.p.
Procedure: (§1) The ability of effective doses of bisuracil 2b (0.01 mg/kg) and bisuracil 3c (5 mg/kg) to induce incapacitation was evaluated. Locomotor activity, measured as the total distance travelled, and exploratory behaviour, assessed by the number of rearings (head inclinations) and head dips, were evaluated using the open-field test. Additionally, motor coordination was analysed using the rotarod test, where the ability of mice to stay on the rotating rod was recorded. The compounds were administered i.p. 30 min before testing, while the control group received an equivalent volume of the vehicle.
(§2) To analyse motor function, rotarod and open-field tests were carried out. Mice were randomly divided into 3 groups (n = 12): a control group of mice and groups of mice treated with tested compounds. Tests were conducted 1 h after compound exposure. To assess motor function, mice were first placed on a rotarod treadmill (Ugo Basile, Italy). Rotation speed was fixed at 15 rpm, and the time that each mouse remained on the rod was recorded as the score, with a maximum duration of 300 s per trial. Each mouse underwent 3 trials. After recording the length of time that mice managed to remain on the rotarod (latency to fall), the average of three trials was used for further analysis. Following the rotarod test, motor function was studied in an open field apparatus (Open Science, Krasnogorsk, Russia), as described in [39]. The numbers of rearing and head dips were estimated as indexes of exploratory activity. To assess motor function, the distance travelled in centimetres in the arena was measured, using VideoMot2 software (Version 8.02 (131) 03-07-17 (TSE Systems, Bad Homburg, Germany).

mice [2] = assay: Rotarod test; format: in vivo; conditions: 3c 5 mg/kg i.p.; control 154 ± 20 s, p = 0.137
Procedure: as §1
as §2, with “After recording the length of time that mice managed to remain on the rotarod (latency to fall), the average of three trials was used for further analysis. Following the rotarod test, motor function was studied in an open field apparatus (Open Science, Krasnogorsk, Russia), as described in [39]. The numbers of rearing and head dips were estimated as indexes of exploratory activity.” left out

brain AChE = target: T1, brain AChE (Mus musculus, UniProt P21836); assay: Brain AChE inhibition in vivo; design: species or system mice; conditions: ip
T1 construct: Whole-brain homogenates were prepared in a Potter homogeniser; from tissue; host or cells: whole brain of CD-1 mice
T1 sequence (P21836 32-614): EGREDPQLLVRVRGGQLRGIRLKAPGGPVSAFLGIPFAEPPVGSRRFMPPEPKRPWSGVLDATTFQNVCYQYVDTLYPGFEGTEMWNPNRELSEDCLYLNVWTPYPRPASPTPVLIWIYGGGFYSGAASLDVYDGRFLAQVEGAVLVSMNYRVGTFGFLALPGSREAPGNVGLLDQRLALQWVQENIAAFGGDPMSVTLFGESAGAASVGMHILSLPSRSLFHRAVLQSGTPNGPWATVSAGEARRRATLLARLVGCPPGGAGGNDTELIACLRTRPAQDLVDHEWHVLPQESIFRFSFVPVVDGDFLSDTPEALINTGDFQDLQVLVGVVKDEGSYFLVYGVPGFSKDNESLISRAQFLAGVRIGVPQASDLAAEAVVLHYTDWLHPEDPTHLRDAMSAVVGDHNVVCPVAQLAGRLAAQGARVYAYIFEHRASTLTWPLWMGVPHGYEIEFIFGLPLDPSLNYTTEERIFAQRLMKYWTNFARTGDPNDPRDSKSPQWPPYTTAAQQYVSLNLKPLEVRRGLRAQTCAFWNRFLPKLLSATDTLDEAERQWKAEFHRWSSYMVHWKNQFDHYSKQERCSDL
Procedure: Bisuracil 3c was identified as the most promising for the inhibition of brain AChE in vivo. […].
For the brain AChE inhibition assay, the brains of mice were removed 30 min after i.p. injection of the tested compound (experimental group, n = 6 mice) or following i.p. vehicle injection (control group, n = 6 mice). The brains were subsequently frozen in liquid nitrogen. Whole-brain homogenates were prepared in a Potter homogeniser with 0.05 M Tris–HCl, 1% Triton X–100, 1M NaCl, and 2 mM ethylenediaminetetraacetic acid (pH 7.0; 4 °C; 1 part brain to 2 parts of buffer). The homogenate was centrifuged (14,000× g rpm; t = 4 °C) for 10 min using an Eppendorf 5430R centrifuge with an FA–45–30–11 rotor (Eppendorf AG, Hamburg, Germany). AChE activity in brain homogenates was measured using the method described by Dingova et al. with modification. […] The production of yellow 5–thio–2–nitro–benzoate anion resulting from the reduction of DTNB by thiocholine (the product of enzymatic hydrolysis of ATCH) was measured spectrophotometrically using a Shimadzu UV-1800 spectrophotometer (Shimadzu Co., Kyoto, Japan) according to Ellman’s method. The rate of thiocholine production over 20 min (from 10 to 30 min) was calculated. […] AChE activity was expressed in relation to the amount of total protein, which was determined by the Bradford method.

human AChE = target: T2, human AChE (Homo sapiens, UniProt P22303); assay: Inhibition constants (Dixon and Cornish–Bowden plots), AChE; format: biochemical
T2 construct: purchased Sigma-Aldrich
Procedure: Experiments were performed using four different concentrations of ATCh as a substrate for AChE, and with BuTCh as a substrate for BuChE. According to the analysis of Dixon and Cornish–Bowden plots for bisuracil 2b, AChE and BuChE inhibition is of a mixed type characterised both by competitive inhibition (Kci) and uncompetitive inhibition (Kui) components. For AChE, Kci was determined to be 55.7 ± 8.1 pM while Kui = 156 ± 18 pM (Figure 3A,B), and Kci = 0.13 ± 0.02 mM while Kui = 0.7 ± 0.06 mM for BuChE (Figure 3C,D). Inhibition of AChE and BuChE by bisuracil 3c was of a mixed type. For the AChE constant, Kci was 0.7 ± 0.04 nM while Kui 4.45 ± 1.76 nM (Figure 4A,B); for the BuChE constant, Kci = 0.04 ± 0.007 мM while Kui = 0.68 ± 0.08 мM (Figure 4C,D).
A UV-1800 Shimadzu (Shimadzu Co., Kyoto, Japan) spectrophotometer was utilised to conduct the measurements. The final enzyme concentration in the assays was in the picomolar range. In order to ascertain the levels of spontaneous hydrolysis of the enzyme and substrate in the absence of an inhibitor, controls were performed for each substrate concentration. The change in absorption was then recorded over a period of three minutes. The inhibition constants were determined from a Dixon plot and Cornish–Bowden transformation.

T2 sequence (P22303 32-614): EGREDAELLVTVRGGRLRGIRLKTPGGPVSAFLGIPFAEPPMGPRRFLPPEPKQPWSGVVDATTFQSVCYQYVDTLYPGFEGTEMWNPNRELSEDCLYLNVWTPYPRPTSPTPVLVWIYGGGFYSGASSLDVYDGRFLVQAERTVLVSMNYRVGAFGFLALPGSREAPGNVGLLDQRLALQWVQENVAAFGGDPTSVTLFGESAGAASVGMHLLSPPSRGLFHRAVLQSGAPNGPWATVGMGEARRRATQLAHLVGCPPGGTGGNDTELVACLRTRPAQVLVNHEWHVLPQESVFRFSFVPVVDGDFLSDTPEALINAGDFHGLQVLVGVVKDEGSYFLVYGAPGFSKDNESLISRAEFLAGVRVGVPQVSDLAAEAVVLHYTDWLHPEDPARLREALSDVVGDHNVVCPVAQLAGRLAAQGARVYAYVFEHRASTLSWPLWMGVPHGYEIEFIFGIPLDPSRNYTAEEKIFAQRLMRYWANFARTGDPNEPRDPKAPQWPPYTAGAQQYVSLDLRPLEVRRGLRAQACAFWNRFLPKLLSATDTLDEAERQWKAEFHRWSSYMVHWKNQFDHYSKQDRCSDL

Structure (SMILES): CCN(CCCCCn1c(=O)ccn(CCCCCn2c(C)cc(=O)n(C)c2=O)c1=O)Cc1ccccc1C#N [3c]
- distance travelled (open field) vs control group (mice [1]): no significant differences
- number of rearings or head dips (open field) (mice [1]): neither of the tested compounds significantly influenced
- mean fall time (rotarod) (mice [2]): 170 ± 19 s
- inhibition at 5 mg/kg (brain AChE): 14.9 ± 3.8%
- inhibition at 10 mg/kg (brain AChE): 54.2 ± 6.6%
- Kui (uncompetitive inhibition constant), AChE (human AChE; ATCh as substrate): 4.45 ± 1.76 nM
- Ki (human AChE; ATCh as substrate, read-out: Kci (competitive inhibition constant), AChE): 0.7 ± 0.04 nM
- type of AChE inhibition (human AChE; Dixon and Cornish–Bowden plots): mixed type
